Reference: patent US7485634B2, “Azepinoindole and pyridoindole derivatives as pharmaceutical agents” (Exelixis, Inc., priority 2002, dated 2009)
Where two headings read alike, the source gives them in different places.

Biological target: T1, farnesoid X receptor (Homo sapiens, UniProt Q96RI1)
T1 construct: fused on or other part: GST fused in frame to the N-terminus of the LBD (TR-FRET assay only); Nothing is fused on in the co-transfection assay
T1 sequence (Q96RI1 244-471 isoform Q96RI1-2 limits assumed): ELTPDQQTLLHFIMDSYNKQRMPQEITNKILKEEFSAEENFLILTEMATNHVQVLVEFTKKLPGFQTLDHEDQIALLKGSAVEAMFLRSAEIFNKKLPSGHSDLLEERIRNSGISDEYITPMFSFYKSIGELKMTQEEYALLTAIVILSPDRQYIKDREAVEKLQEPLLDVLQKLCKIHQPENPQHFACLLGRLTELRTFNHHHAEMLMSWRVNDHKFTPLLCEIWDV
Experiment: one or more of the in vitro assays described herein (TR-FRET assay, Example 75; co-transfection assay, Example 76);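 further: TR-FRET assay or luciferase reporter in CV-1 monkey kidney cells co-transfected with human FXR and RXRα, dose-response over 8 half-log concentrations, CDCA added in antagonist mode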
Settings: for Emax: read-out: efficacy; for inhibition: 100% = baseline (DMSO only)

[1] = one or more of the in vitro assays, read-out: EC50 (agonist / partial agonist)
[2] = relative to maximum response of chenodeoxycholic acid (CDCA)
[3] = inhibition of the activity of CDCA
[4] = inhibition of the activity of CDCA, read-out: IC50 (antagonist / partial agonist)

Method: (Wallac/PE Life Sciences, Cat# AD0059A) in FRET assay buffer (20 mM KH2PO4/K2HPO4 (pH 7.3), 150 mM NaCl, 2 mM CHAPS, 2 mM EDTA, 1 mM DTT) in the presence of the test compound(s) for 2-4 hours at room temperature in a 384 well assay plate. Data was collected using an LJL Analyst using the standard operating instructions and conditions with readings at emission wavelengths of 615 nm and 665 nm after a delay of 65 ps and an excitation wavelength of 330 nm.
The basic co-transfection protocol for measuring the farnesoid X receptor activity is as follows. CV-1 African Green Monkey Kidney cells were plated 24 hours before transfection to achieve approximately 70-80 percent confluency. Cells were transfected with the following expression vectors, CMX-farnesoid X receptor (full length human farnesoid X receptor), CMX-RXRα (full length human RXR), Luc12 (ECREx7-Tk-Luciferase) luciferase reporter gene construct. […] A CMX-β-Galactosidase expression vector was used as a transfection control. The transfection reagent used was DOTAP (Boehringer Mannheim). Cells were incubated with the DOTAP/DNA mixture for 5 hours after which the cells were harvested and plated onto either 96 well or 384 well plates containing the appropriate concentration of test compound. The assay was allowed to continue for an additional 18-20 hours, after which the cells were lysed, with lysis buffer (1% triton X 100, 10% glycerol, 5 mM Dithiothreitol, 1 mM EGTA, 25 mM Tricine, pH 7.8) and the luciferase activity measured in the presence of Luciferase assay buffer (0.73 mM ATP, 22.3 mM Tricine, 0.11 mM EGTA, 0.55 mM Luciferin, 0.15 mM Coenzyme A, 0.5 mM HEPES, 10 mM Magnesium sulphate) on a standard luminomter plate reader (PE Biosystems, NorthStar Reader), using recommended operating instructions and conditions.
Both the farnesoid X receptor/ECREx7 co-transfection assay (Example 76) and the TR-FRET assay (Example 75) can be used to establish the EC50/IC50 values for potency and percent activity or inhibition for efficacy. Efficacy defines the activity of a compound relative to a high control (chenodeoxycholic acid, CDCA) or a low control (DMSO/vehicle). The dose response curves are generated from an 8 point curve with concentrations differing by ½ LOG units. Each point represents the average of 4 wells of data from a 384 well plate. The curve for the data is generated by using the equation: Y=Bottom+(Top−Bottom)/(1+10^((LogEC50−X)*HillSlope))
The EC50/IC50 is therefore defined as the concentration at which an agonist or antagonist elicits a response that is half way between the Top (maximum) and Bottom (baseline) values. The EC50/IC50 values represented are the averages of at least 3 independent experiments. The determination of the relative efficacy or % control for an agonist is by comparison to the maximum response achieved by chenodeoxycholic acid that is measured individually in each dose response experiment.
For the antagonist assay, CDCA is added to each well of a 384 well plate to elicit a response. The % inhibition for each antagonist is therefore a measurement of the inhibition of the activity of CDCA.

| SMILES | EC50 [1] | Emax [2] | inhibition [3] | IC50 [4] | EC50 | IC50 | Emax |
| --- | --- | --- | --- | --- | --- | --- | --- |
| CCOC(=O)C1=CN(C(=O)c2ccc(F)c(F)c2)CC2(CCCC2)c2c1[nH]c1ccccc21 [3-(3,4-difluorobenzoyl)-1,1-tetramethylene-1,2,3,6-tetrahydroazepino[4,5-b]indole-5-carboxylic acid ethyl ester] | < 100 nM | > 100% | – | – | – | – | – |
| CCOC(=O)C1=CN(C(=O)c2ccc(F)cc2)CC(C)(C)c2c1[nH]c1cc(N(C)C(=O)NCc3ccccn3)ccc21 [3-(4-fluorobenzoyl)-1,1-dimethyl-8-(1-methyl-3-pyridin-2-ylmethylureido)-1,2,3,6-tetrahydroazepino[4,5-b]indole-5-carboxylic acid ethyl ester] | – | – | 100% | < 100 nM | – | – | – |
| CCOC(=O)C1=CN(C(=O)c2ccc(F)cc2)CC(C)(C)c2c1[nH]c1cc(OC(=O)NCCc3ccccn3)ccc21 [3-(4-fluorobenzoyl)-1,1-dimethyl-8-(2-pyridin-2-yl-ethylcarbamoyloxy)-1,2,3,6-tetrahydroazepino[4,5-b]indole-5-carboxylic acid ethyl ester] | < 200 nM | 10 to 30% | – | < 200 nM | – | – | – |
| CCOC(=O)C1=CN(C(=O)c2ccc(F)cc2)CC(C)(C)c2c1[nH]c1cc(OC(=O)NCc3cnc(C)cn3)ccc21 [3-(4-fluorobenzoyl)-1,1-dimethyl-8-(5-methylpyrazin-2-ylmethylcarbamoyloxy)-1,2,3,6-tetrahydroazepino[4,5-b]indole-5-carboxylic acid ethyl ester] | < 200 nM | 10 to 30% | – | < 200 nM | – | – | – |
| CCOC(=O)C1=CN(C(=O)c2ccc(F)cc2)CC(C)(C)c2c1[nH]c1cc(OC(=O)NCc3ccccn3)ccc21 [3-(4-fluorobenzoyl)-1,1-dimethyl-8-(pyridin-2-yl-methylcarbamoyloxy)-1,2,3,6-tetrahydroazepino[4,5-b]indole-5-carboxylic acid ethyl ester] | – | – | – | – | < 200 nM | < 200 nM | 10 to 30% |
| CCOC(=O)C1=CN(C(=O)c2ccc(F)cc2)CC(C)(C)c2c1[nH]c1cc(OC(=O)NCc3cccnc3)ccc21 [3-(4-fluorobenzoyl)-1,1-dimethyl-8-(pyridin-3-ylmethylcarbamoyloxy)-1,2,3,6-tetrahydroazepino[4,5-b]indole-5-carboxylic acid ethyl ester] | < 200 nM | 10 to 30% | – | < 200 nM | – | – | – |
| CCOC(=O)C1=CN(C(=O)c2ccc(F)cc2)CC(C)(C)c2c1[nH]c1cc(OC(=O)NCc3cccs3)ccc21 [3-(4-fluorobenzoyl)-1,1-dimethyl-8-(thiophen-2-ylmethylcarbamoyloxy)-1,2,3,6-tetrahydroazepino[4,5-b]indole-5-carboxylic acid ethyl ester] | – | – | 100% | < 100 nM | – | – | – |
| CCOC(=O)C1=CN(C(=O)c2ccc(F)cc2)CC(C)(C)c2c1[nH]c1cc(OC(=O)NC(C)C)ccc21 [3-(4-fluorobenzoyl)-1,1-dimethyl-8-isopropylcarbamoyloxy-1,2,3,6-tetrahydroazepino[4,5-b]indole-5-carboxylic acid ethyl ester] | – | – | 100% | < 100 nM | – | – | – |
| CC1Cc2c([nH]c3ccccc23)C(C(=O)NC2CCC2)=CN1C(=O)c1ccc(F)cc1 (stereo not drawn) [3-(4-fluorobenzoyl)-2-methyl-1,2,3,6-tetrahydroazepino[4,5-b]indole-5-carboxylic acid cyclobutylamide] | < 100 nM | > 100% | – | – | – | – | – |
| CCOC(=O)C1=CN(C(=O)c2ccc(F)cc2)CC(C)(C)c2c1[nH]c1cc(N(C)C(=O)NC3CC3)ccc21 [8-(3-cyclopropyl-1-methylureido)-3-(4-fluorobenzoyl)-1,1-dimethyl-1,2,3,6-tetrahydroazepino[4,5-b]indole-5-carboxylic acid ethyl ester] | – | – | 100% | < 100 nM | – | – | – |
| CCOC(=O)C1=CN(C(=O)c2ccc(F)cc2)CC(C)(C)c2c1[nH]c1cc(OC(=O)NC3CCCCC3)ccc21 [8-cyclohexylcarbamoyloxy-3-(4-fluorobenzoyl)-1,1-dimethyl-1,2,3,6-tetrahydroazepino[4,5-b]indole-5-carboxylic acid ethyl ester] | < 200 nM | 10 to 30% | – | < 200 nM | – | – | – |
